Patent publication US11136313B2, “Compounds, compositions, and methods for modulating CFTR” (Proteostasis Therapeutics, Inc., priority 2015, dated 2021)

Molecular target: T1, ΔF508-CFTR (Homo sapiens, UniProt P13569, DEL508-508)
T1 construct: Primary lung epithelial cells homozygous for the Cystic Fibrosis-causing ΔF508 mutation were differentiated for a minimum of 4 weeks; endogenous in cells; host or cells: primary lung epithelial cells (hBE) homozygous for ΔF508, differentiated at an air-liquid interface
T1 sequence (P13569 with tags, fused parts or gaps DEL508-508): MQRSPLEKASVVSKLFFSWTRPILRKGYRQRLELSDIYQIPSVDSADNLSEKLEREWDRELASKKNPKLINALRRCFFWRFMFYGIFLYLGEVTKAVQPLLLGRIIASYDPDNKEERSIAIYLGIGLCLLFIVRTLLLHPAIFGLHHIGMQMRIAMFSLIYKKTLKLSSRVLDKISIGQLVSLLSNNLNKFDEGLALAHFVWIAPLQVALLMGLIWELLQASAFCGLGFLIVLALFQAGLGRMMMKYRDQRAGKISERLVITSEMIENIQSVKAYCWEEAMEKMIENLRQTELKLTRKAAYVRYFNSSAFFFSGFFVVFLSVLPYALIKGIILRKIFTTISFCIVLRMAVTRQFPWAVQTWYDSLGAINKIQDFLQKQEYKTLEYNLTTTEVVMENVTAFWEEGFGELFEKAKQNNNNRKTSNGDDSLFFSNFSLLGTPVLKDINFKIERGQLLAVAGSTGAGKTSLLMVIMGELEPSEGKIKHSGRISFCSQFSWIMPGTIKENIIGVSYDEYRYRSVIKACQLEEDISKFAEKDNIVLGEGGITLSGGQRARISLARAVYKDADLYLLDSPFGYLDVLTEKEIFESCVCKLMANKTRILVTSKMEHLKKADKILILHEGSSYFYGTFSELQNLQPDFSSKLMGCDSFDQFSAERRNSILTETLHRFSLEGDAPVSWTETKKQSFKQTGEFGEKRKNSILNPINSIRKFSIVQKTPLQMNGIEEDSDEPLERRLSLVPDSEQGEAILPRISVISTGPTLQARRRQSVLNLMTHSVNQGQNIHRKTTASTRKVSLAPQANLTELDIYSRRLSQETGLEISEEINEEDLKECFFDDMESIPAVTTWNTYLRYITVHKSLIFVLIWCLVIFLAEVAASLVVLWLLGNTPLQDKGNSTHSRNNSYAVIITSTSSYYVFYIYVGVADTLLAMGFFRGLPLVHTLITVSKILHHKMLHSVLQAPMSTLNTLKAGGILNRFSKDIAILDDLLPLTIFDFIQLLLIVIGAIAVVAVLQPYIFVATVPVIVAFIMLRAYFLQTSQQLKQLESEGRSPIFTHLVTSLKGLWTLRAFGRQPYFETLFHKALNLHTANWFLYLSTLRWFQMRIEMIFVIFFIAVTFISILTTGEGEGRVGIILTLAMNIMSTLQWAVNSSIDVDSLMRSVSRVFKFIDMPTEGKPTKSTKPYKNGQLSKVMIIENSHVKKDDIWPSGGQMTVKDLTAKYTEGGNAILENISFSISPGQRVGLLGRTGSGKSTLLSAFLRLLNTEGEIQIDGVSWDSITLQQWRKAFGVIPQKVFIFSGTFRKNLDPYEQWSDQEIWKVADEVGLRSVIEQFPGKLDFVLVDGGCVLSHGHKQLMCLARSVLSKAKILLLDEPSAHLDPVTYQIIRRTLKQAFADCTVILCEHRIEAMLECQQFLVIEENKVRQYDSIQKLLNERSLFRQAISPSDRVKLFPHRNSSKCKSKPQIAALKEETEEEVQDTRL
Assay: hBE equivalent current (Ieq) assay: AUC of equivalent chloride current after forskolin/VX-770 in primary lung epithelial cells homozygous for ΔF508
Type: cell-based
Conditions: relative to CFTR amplifier (Compound A)+VX-809 (3 uM), compound at 10 uM and Compound A at 3 uM, 24 h treatment
Procedure, shortened: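 Readout is the increase over vehicle in equivalent chloride current AUC from forskolin/VX-770 addition to bumetanide, measured by current clamp at 36 °C after benzamil block of ENaC. Cultures were homozygous ΔF508 primary lung epithelium grown ≥4 weeks at air-liquid interface and exposed basolaterally to compound for 24 h.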

| Structure (SMILES) | Activity |
| --- | --- |
| COc1ccccc1COc1ccc(C)c2nc(-c3sc4ccccc4c3C)cc(C(=O)[O-])c12.[Na+] [Compound 292, Sodium 5-[(2-Methoxyphenyl)methoxy]-8-methyl-2-(3-methyl-1-benzothiophen-2-yl)quinoline-4-carboxylate] | ++ (activity>50% of CFTR amplifier+VX-809 (3 uM) with compound at 10 uM and Compound A at 3 uM) |
| COc1cccc(COc2ccc(C)c3nc(-c4sc5ccccc5c4C)cc(C(=O)[O-])c23)c1.[Na+] [Compound 293, Sodium 5-[(3-Methoxyphenyl)methoxy]-8-methyl-2-(3-methyl-1-benzothiophen-2-yl)quinoline-4-carboxylate] | ++ (activity>50% of CFTR amplifier+VX-809 (3 uM) with compound at 10 uM and Compound A at 3 uM) |
| Cc1c(-c2cc(C(=O)[O-])c3c(OCc4c(F)cccc4F)ccc(C)c3n2)sc2ccccc12.[Na+] [Compound 294, Sodium 5-[(2,6-Difluorophenyl)methoxy]-8-methyl-2-(3-methyl-1-benzothiophen-2-yl)quinoline-4-carboxylate] | ++ (activity>50% of CFTR amplifier+VX-809 (3 uM) with compound at 10 uM and Compound A at 3 uM) |
| Cc1c(-c2cc(C(=O)[O-])c3c(OCc4ccc5c(c4)OCO5)ccc(C)c3n2)sc2ccccc12.[Na+] [Compound 295, Sodium 5-(2H-1,3-Benzodioxol-5-ylmethoxy)-8-methyl-2-(3-methyl-1-benzothiophen-2-yl)quinoline-4-carboxylate] | ++ (activity>50% of CFTR amplifier+VX-809 (3 uM) with compound at 10 uM and Compound A at 3 uM) |
| Cc1c(-c2cc(C(=O)[O-])c3c(OCc4cccc5c4OCO5)ccc(C)c3n2)sc2ccccc12.[Na+] [Compound 296] | ++ (activity>50% of CFTR amplifier+VX-809 (3 uM) with compound at 10 uM and Compound A at 3 uM) |
| Cc1c(-c2cc(C(=O)[O-])c3c(OCc4cccc(C#N)c4)ccc(C)c3n2)sc2ccccc12.[Na+] [Compound 298, Sodium 5-[(3-Cyanophenyl)methoxy]-8-methyl-2-(3-methyl-1-benzothiophen-2-yl)quinoline-4-carboxylate] | ++ (activity>50% of CFTR amplifier+VX-809 (3 uM) with compound at 10 uM and Compound A at 3 uM) |
| Cc1c(-c2cc(C(=O)[O-])c3c(O[C@H]4CCC[C@@H](c5ccccc5)C4)ccc(C)c3n2)oc2ccccc12.[Na+] [Compound 299] | ++ (activity>50% of CFTR amplifier+VX-809 (3 uM) with compound at 10 uM and Compound A at 3 uM) |
| Cc1c(-c2cc(C(=O)[O-])c3c(O[C@@H]4CCC[C@H](c5ccccc5)C4)ccc(C)c3n2)oc2ccccc12.[Na+] [Compound 300] | ++ (activity>50% of CFTR amplifier+VX-809 (3 uM) with compound at 10 uM and Compound A at 3 uM) |
| Cc1c(-c2cc(C(=O)[O-])c3c(O[C@@H]4CCC[C@@H](c5ccccc5)C4)ccc(C)c3n2)oc2ccccc12.[Na+] [Compound 301] | ++ (activity>50% of CFTR amplifier+VX-809 (3 uM) with compound at 10 uM and Compound A at 3 uM) |
| Cc1c(-c2cc(C(=O)[O-])c3c(O[C@H]4CCC[C@H](c5ccccc5)C4)ccc(C)c3n2)oc2ccccc12.[Na+] [Compound 302] | ++ (activity>50% of CFTR amplifier+VX-809 (3 uM) with compound at 10 uM and Compound A at 3 uM) |
| Cc1ccccc1COc1ccc(C)c2nc(-c3sc4ccccc4c3C)cc(C(=O)[O-])c12.[Na+] [Compound 303] | ++ (activity>50% of CFTR amplifier+VX-809 (3 uM) with compound at 10 uM and Compound A at 3 uM) |
| Cc1cccc(COc2ccc(C)c3nc(-c4sc5ccccc5c4C)cc(C(=O)[O-])c23)c1.[Na+] [Compound 304] | ++ (activity>50% of CFTR amplifier+VX-809 (3 uM) with compound at 10 uM and Compound A at 3 uM) |
| Cc1cccc(C)c1COc1ccc(C)c2nc(-c3sc4ccccc4c3C)cc(C(=O)[O-])c12.[Na+] [Compound 305] | ++ (activity>50% of CFTR amplifier+VX-809 (3 uM) with compound at 10 uM and Compound A at 3 uM) |
| Cc1c(-c2cc(C(=O)[O-])c3c(O[C@@H](CO)c4ccccc4)ccc(C)c3n2)sc2ccccc12.[Na+] [Compound 306] | ++ (activity>50% of CFTR amplifier+VX-809 (3 uM) with compound at 10 uM and Compound A at 3 uM) |
| Cc1c(-c2cc(C(=O)[O-])c3c(O[C@H](CO)c4ccccc4)ccc(C)c3n2)sc2ccccc12.[Na+] [Compound 307] | ++ (activity>50% of CFTR amplifier+VX-809 (3 uM) with compound at 10 uM and Compound A at 3 uM) |
| COC[C@H](Oc1ccc(C)c2nc(-c3sc4ccccc4c3C)cc(C(=O)[O-])c12)c1ccccc1.[Na+] [Compound 308] | ++ (activity>50% of CFTR amplifier+VX-809 (3 uM) with compound at 10 uM and Compound A at 3 uM) |
| COC[C@@H](Oc1ccc(C)c2nc(-c3sc4ccccc4c3C)cc(C(=O)[O-])c12)c1ccccc1.[Na+] [Compound 309] | ++ (activity>50% of CFTR amplifier+VX-809 (3 uM) with compound at 10 uM and Compound A at 3 uM) |
| Cc1c(-c2cc(C(=O)[O-])c3c(O[C@@H](CCO)c4ccccc4)ccc(C)c3n2)sc2ccccc12.[Na+] [Compound 310] | ++ (activity>50% of CFTR amplifier+VX-809 (3 uM) with compound at 10 uM and Compound A at 3 uM) |
| Cc1c(-c2cc(C(=O)[O-])c3c(O[C@H](CCO)c4ccccc4)ccc(C)c3n2)sc2ccccc12.[Na+] [Compound 311] | ++ (activity>50% of CFTR amplifier+VX-809 (3 uM) with compound at 10 uM and Compound A at 3 uM) |
| COCC[C@H](Oc1ccc(C)c2nc(-c3sc4ccccc4c3C)cc(C(=O)[O-])c12)c1ccccc1.[Na+] [Compound 312] | ++ (activity>50% of CFTR amplifier+VX-809 (3 uM) with compound at 10 uM and Compound A at 3 uM) |
| COCC[C@@H](Oc1ccc(C)c2nc(-c3sc4ccccc4c3C)cc(C(=O)[O-])c12)c1ccccc1.[Na+] [Compound 313] | ++ (activity>50% of CFTR amplifier+VX-809 (3 uM) with compound at 10 uM and Compound A at 3 uM) |
| Cc1c(-c2cc(C(=O)[O-])c3c(O[C@H]4C[C@H](C)C[C@H](C)C4)ccc(C)c3n2)sc2ccccc12.[Na+] [Compound 314] | ++ (activity>50% of CFTR amplifier+VX-809 (3 uM) with compound at 10 uM and Compound A at 3 uM) |
| Cc1c(-c2cc(C(=O)[O-])c3c(O[C@@H]4C[C@H](C)C[C@H](C)C4)ccc(C)c3n2)sc2ccccc12.[Na+] [Compound 315] | ++ (activity>50% of CFTR amplifier+VX-809 (3 uM) with compound at 10 uM and Compound A at 3 uM) |
| Cc1c(-c2cc(C(=O)[O-])c3c(OC4CC(C)(C)C4)ccc(C)c3n2)sc2ccccc12.[Na+] [Compound 318] | ++ (activity>50% of CFTR amplifier+VX-809 (3 uM) with compound at 10 uM and Compound A at 3 uM) |
| Cc1c(-c2cc(C(=O)[O-])c3c(OCC4CCC4)ccc(C)c3n2)sc2ccccc12.[Na+] [Compound 319] | ++ (activity>50% of CFTR amplifier+VX-809 (3 uM) with compound at 10 uM and Compound A at 3 uM) |
| Cc1c(-c2cc(C(=O)[O-])c3c(OC[C@H]4C[C@@](C)(O)C4)ccc(C)c3n2)sc2ccccc12.[Na+] [Compound 320] | ++ (activity>50% of CFTR amplifier+VX-809 (3 uM) with compound at 10 uM and Compound A at 3 uM) |
| Cc1c(-c2cc(C(=O)[O-])c3c(OC[C@H]4C[C@](C)(O)C4)ccc(C)c3n2)sc2ccccc12.[Na+] [Compound 321] | ++ (activity>50% of CFTR amplifier+VX-809 (3 uM) with compound at 10 uM and Compound A at 3 uM) |
| Cc1c(-c2cc(C(=O)[O-])c3c(OC[C@H]4CC[C@@](C)(O)CC4)ccc(C)c3n2)sc2ccccc12.[Na+] [Compound 322] | ++ (activity>50% of CFTR amplifier+VX-809 (3 uM) with compound at 10 uM and Compound A at 3 uM) |
